The values below come from EPA's ToxValDB 9.5 (doi:10.2903/j.efsa.2010.1769).

Structures are written as SMILES. Converted amounts (≈) assume the structure as drawn.

One data set concerns Canidae. Conditions: chronic, duration: 1 years, oral, Dog Other.
The next data set relates to Landoltia sp. The note with it: acute.
Another data set has as its system Apis mellifera. Conditions: acute, mortality.
The subject of another data set is Oncorhynchus mykiss. Conditions: chronic/long-term; duration: 28 days.
For another data set, the system named is Danio rerio. The note with it: acute; duration: 96 hours; mortality.
A further data set concerns Typhlodromus pyri. The data set is described as follows: LR50; higher = less toxic. The note with it: not reported; mortality.
Another data set deals with Aphidius rhopalosiphi. The data set can be described thus: LR50; higher = less toxic. Conditions: not reported; mortality.
Another data set concerns Folsomia candida. Conditions: chronic/long-term; reproduction.

A word on the NOAEL: it is the highest dose or exposure tested at which no adverse effect was seen. In general, LOAEL refers to the lowest dose or exposure tested at which an adverse effect was seen. As for `CCc1cccc(C)c1N(COC(C)C)C(=O)CCl` [Propisochlor], the no-observed-adverse-effect level (NOAEL) worked out at 5 mg/kg-day in the data set with Canidae and 10 mg/kg-day with Rattus norvegicus (reproduction developmental, reproduction). In the data set with Canidae (clinical signs), this compound gave an LOAEL of 5 mg/kg-day. In addition, the NOEC in the data set with Landoltia sp. was determined as 21 µg/L; in the data set on Tagia sp. (acute), 62.5 mg/kg; with Daphnia magna (chronic/long-term, duration: 21 days) it was 0.93 mg/L; in the data set on Oncorhynchus mykiss, 0.18 mg/L. Further, the LD50 in the data set with Apis mellifera (dermal) was over 100 µg/piece; with Apis mellifera (oral, unspecified), over 111 µg/piece; with Rattus norvegicus (acute, oral, mortality), 1920 mg/kg. Moreover, the LC50 in the data set with Tagia sp. (acute, mortality) turned out to be 248 mg/kg; with Daphnia magna (acute, duration: 96 hours, mortality), 4.46 mg/L (≈ 15.7 µM); in the data set with Danio rerio, 0.93 mg/L (≈ 3.28 µM). Further, the values for the LR50 in the data set on Typhlodromus pyri and in the data set with Aphidius rhopalosiphi were 1500 g/ha and 20300 g/ha, respectively.
`CCc1cccc(C)c1N(COC(C)C)C(=O)C(=O)O` returned an NOEC in the data set on Folsomia candida of over 1000 mg/kg.
For the compound `CCc1cccc(C)c1NC(=O)CS(=O)(=O)O` [2-(2-ethyl-6-methylanilino)-2-oxoethane-1-sulfonic acid], the NOEC in the data set on Folsomia candida is over 1000 mg/kg; in the data set with Tagia sp. (chronic/long-term, duration: 56 days) it was 3.5 mg/kg.
